Measured values: ChEMBL document CHEMBL5291721, “A preclinical secondary pharmacology resource illuminates target-adverse drug reaction associations of marketed drugs” (Nat Commun, 2023)

Key:
Glucocorticoid receptor = target: T1, Glucocorticoid receptor (Homo sapiens, UniProt P04150); assay type: functional
T1 sequence (P04150 whole entry): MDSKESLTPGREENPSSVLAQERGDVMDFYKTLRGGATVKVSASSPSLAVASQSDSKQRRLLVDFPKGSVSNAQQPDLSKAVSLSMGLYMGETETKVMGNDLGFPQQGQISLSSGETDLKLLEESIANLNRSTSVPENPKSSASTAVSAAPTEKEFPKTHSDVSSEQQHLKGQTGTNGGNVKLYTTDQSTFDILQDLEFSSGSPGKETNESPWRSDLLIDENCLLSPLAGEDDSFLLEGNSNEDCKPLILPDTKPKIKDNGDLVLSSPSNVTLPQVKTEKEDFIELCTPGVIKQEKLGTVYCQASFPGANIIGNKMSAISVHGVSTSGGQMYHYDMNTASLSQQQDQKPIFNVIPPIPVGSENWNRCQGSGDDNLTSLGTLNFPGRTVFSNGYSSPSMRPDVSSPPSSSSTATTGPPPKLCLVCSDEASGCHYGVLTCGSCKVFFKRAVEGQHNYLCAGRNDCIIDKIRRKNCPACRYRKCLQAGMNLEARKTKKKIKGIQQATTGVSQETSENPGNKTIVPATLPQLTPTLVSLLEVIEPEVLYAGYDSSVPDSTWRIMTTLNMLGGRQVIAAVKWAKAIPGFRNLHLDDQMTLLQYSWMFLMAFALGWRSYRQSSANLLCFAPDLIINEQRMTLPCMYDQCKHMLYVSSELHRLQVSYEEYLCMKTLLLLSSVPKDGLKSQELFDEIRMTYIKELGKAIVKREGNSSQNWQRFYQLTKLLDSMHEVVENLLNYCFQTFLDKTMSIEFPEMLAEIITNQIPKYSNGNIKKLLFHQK

D(1A) dopamine receptor [1] = target: T2, D(1A) dopamine receptor (Homo sapiens, UniProt P21728); assay type: functional, cell-based
T2 sequence (P21728 whole entry): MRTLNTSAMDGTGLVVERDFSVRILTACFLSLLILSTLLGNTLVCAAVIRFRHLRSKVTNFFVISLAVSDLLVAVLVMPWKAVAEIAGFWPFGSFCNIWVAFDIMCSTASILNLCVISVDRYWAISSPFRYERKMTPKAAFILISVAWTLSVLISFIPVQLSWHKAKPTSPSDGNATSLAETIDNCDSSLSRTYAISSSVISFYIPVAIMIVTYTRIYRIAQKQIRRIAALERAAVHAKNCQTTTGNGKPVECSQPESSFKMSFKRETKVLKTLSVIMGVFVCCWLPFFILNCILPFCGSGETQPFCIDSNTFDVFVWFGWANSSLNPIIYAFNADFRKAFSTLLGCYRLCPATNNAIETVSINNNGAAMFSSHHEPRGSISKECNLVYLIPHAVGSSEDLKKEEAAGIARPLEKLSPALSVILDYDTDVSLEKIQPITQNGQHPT

[2] = target: Gamma-aminobutyric acid receptor subunit alpha-1/alpha-2/beta-2/gamma-2 (Homo sapiens, UniProt P14867+P18507+P47869+P47870); assay type: functional, cell-based
Sequence of Gamma-aminobutyric acid receptor subunit alpha-1/alpha-2/beta-2/gamma-2 (P14867 whole entry): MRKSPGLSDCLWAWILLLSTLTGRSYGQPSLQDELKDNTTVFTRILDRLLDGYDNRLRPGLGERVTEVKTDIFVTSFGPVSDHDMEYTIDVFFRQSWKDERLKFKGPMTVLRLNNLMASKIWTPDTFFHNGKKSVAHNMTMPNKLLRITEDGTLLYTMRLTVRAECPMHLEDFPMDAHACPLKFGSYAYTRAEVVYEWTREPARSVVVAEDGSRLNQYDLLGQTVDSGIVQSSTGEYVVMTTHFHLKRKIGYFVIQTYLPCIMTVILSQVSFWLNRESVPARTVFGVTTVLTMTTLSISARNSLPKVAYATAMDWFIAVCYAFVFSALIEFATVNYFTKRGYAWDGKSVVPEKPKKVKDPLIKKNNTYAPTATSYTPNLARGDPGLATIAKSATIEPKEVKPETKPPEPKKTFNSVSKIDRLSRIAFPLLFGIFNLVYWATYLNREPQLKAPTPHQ
Sequence of Gamma-aminobutyric acid receptor subunit alpha-1/alpha-2/beta-2/gamma-2 (P47870 whole entry): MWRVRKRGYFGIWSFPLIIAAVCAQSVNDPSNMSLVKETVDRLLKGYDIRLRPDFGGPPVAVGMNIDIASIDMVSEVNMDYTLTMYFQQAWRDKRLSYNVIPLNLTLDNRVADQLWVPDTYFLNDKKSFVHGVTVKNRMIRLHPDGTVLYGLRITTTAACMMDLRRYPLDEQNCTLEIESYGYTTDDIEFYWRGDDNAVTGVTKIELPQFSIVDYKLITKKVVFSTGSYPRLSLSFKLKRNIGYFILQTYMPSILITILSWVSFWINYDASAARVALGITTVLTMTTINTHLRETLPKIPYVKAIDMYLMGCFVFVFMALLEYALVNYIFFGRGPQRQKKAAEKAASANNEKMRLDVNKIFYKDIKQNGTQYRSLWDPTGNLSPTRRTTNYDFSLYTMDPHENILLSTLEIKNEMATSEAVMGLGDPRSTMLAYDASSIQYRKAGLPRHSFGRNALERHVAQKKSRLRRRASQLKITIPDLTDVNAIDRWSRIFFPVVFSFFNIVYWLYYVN
Sequence of Gamma-aminobutyric acid receptor subunit alpha-1/alpha-2/beta-2/gamma-2 (P18507 whole entry): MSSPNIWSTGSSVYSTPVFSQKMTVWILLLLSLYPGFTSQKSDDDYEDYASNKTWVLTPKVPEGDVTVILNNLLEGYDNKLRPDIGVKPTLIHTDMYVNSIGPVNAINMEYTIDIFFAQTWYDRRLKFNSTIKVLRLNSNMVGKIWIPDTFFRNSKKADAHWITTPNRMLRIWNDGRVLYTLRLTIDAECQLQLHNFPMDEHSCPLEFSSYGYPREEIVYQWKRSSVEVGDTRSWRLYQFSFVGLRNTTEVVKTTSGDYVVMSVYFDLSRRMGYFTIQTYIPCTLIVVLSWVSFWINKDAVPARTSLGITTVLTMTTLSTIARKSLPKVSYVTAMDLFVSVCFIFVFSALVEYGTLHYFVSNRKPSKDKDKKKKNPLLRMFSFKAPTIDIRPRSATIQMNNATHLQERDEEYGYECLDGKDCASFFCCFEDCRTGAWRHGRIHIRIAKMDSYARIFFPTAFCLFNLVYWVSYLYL
Sequence of Gamma-aminobutyric acid receptor subunit alpha-1/alpha-2/beta-2/gamma-2 (P47869 whole entry): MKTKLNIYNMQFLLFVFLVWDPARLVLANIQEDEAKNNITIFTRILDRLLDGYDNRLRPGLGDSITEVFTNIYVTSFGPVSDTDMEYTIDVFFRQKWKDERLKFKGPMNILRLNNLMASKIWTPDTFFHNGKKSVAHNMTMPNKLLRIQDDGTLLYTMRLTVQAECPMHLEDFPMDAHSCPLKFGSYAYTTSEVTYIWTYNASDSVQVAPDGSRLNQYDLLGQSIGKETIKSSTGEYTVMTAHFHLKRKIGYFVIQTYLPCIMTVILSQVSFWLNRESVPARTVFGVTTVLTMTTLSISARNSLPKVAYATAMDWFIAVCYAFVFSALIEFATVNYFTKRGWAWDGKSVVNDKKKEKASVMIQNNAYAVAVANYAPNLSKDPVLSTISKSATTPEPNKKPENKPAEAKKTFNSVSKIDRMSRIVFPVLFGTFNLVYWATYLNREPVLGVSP

Androgen receptor = target: T3, Androgen receptor (Homo sapiens, UniProt P10275)
T3 sequence (P10275 whole entry): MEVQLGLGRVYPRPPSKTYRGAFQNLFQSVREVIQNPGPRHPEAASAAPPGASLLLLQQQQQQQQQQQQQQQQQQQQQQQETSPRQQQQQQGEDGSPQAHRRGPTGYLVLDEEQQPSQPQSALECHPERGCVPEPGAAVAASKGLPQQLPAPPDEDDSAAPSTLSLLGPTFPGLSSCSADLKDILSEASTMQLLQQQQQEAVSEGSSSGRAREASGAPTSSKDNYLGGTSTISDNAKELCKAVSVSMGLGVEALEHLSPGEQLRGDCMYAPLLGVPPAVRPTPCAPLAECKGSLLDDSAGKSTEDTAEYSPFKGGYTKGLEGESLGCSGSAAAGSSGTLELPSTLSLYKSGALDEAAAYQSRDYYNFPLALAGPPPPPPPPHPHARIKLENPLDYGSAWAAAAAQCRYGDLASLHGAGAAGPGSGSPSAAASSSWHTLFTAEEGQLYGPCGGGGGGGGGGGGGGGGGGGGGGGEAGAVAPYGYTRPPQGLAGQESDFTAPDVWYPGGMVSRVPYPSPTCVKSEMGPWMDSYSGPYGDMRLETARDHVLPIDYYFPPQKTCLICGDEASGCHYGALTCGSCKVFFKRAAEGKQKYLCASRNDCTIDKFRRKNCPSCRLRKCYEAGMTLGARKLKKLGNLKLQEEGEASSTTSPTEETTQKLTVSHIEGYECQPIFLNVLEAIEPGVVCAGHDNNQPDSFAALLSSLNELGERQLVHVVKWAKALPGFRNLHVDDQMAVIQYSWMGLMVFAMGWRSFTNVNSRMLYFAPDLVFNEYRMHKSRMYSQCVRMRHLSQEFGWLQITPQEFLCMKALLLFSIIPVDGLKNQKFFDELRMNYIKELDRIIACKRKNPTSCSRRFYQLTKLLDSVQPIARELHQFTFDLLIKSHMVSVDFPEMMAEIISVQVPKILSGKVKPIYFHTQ

[3] = target: Voltage-dependent N-type calcium channel subunit alpha-1B (Rattus norvegicus, UniProt Q02294); assay type: functional
Estrogen receptor beta = Estrogen receptor beta (Homo sapiens, UniProt Q92731)
Sequence of Estrogen receptor beta (Q92731 whole entry): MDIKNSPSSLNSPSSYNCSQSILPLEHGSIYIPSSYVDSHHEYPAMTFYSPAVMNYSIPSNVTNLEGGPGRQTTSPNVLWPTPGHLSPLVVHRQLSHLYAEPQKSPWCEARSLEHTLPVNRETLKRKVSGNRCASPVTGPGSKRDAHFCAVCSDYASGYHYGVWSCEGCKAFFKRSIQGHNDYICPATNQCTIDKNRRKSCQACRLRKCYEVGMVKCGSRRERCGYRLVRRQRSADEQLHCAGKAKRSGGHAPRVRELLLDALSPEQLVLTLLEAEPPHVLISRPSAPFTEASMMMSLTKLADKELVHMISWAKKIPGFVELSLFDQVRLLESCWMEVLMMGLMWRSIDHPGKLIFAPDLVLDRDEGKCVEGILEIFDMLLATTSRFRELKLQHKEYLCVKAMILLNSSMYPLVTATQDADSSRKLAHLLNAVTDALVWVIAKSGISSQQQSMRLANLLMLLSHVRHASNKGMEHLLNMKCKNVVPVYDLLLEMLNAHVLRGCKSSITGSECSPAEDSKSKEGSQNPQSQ

D(1A) dopamine receptor [4] = target: T2, D(1A) dopamine receptor
[5] = target: T4, Alpha-2A adrenergic receptor (Homo sapiens, UniProt P08913)
T4 sequence (P08913 whole entry): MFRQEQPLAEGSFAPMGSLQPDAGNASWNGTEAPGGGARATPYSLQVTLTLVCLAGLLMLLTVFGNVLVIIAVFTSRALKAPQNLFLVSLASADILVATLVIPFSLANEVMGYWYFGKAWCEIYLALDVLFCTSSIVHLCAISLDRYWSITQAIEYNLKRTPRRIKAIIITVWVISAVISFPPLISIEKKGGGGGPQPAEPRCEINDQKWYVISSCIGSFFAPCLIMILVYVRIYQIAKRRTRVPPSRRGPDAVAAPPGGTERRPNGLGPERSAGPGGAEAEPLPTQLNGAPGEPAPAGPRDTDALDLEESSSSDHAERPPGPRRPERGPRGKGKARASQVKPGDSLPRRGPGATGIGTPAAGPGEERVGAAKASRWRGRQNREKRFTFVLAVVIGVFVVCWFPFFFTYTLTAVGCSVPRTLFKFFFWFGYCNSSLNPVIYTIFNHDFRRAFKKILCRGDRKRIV

[6] = target: 5-hydroxytryptamine receptor 2B (Homo sapiens, UniProt P41595)
Sequence of 5-hydroxytryptamine receptor 2B (P41595 whole entry): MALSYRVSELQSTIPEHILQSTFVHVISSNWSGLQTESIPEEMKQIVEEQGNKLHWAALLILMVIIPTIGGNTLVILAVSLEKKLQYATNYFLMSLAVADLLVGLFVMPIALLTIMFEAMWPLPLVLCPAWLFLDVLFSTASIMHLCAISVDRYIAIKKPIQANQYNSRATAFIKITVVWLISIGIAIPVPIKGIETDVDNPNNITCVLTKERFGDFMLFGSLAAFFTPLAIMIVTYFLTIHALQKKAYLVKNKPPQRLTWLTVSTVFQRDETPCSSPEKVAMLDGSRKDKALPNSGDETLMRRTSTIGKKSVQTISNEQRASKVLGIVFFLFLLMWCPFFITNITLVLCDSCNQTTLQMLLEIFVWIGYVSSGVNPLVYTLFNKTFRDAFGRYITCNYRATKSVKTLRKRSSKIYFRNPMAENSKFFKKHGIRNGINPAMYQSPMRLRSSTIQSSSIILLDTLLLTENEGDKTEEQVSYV

[7] = target: T5, Corticotropin-releasing factor receptor 1 (Homo sapiens, UniProt P34998)
T5 sequence (P34998 whole entry): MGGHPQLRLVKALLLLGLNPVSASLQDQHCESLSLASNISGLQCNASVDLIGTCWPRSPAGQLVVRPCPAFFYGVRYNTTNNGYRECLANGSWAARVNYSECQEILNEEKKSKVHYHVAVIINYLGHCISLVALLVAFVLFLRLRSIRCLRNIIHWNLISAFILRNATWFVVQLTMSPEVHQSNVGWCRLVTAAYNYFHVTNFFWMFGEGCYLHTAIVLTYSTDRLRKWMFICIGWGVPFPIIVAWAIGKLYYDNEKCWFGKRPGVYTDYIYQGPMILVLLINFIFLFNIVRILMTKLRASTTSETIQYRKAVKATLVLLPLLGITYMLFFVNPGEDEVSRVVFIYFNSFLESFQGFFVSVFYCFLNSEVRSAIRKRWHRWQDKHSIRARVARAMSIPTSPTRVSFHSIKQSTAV

Mu-type opioid receptor = Mu-type opioid receptor (Homo sapiens, UniProt P35372); test: biochemical; assay type: functional
Sequence of Mu-type opioid receptor (P35372 whole entry): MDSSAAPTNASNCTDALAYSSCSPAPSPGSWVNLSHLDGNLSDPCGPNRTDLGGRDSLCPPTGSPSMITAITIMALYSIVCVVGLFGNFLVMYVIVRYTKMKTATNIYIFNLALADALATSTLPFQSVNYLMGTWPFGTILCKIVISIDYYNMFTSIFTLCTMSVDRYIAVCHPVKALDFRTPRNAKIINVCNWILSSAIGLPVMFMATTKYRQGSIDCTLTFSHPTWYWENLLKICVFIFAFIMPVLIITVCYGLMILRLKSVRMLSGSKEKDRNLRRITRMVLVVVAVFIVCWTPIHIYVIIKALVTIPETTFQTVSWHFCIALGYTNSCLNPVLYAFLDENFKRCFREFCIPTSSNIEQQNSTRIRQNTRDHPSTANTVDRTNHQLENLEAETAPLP
Further: assay procedure not described here.

O=C1Nc2ccc(Cl)cc2[C@@](C#CC2CC2)(C(F)(F)F)O1 [EFAVIRENZ]
AC50 (Glucocorticoid receptor): > 30 µM

C1CCC(C(CC2CCCCN2)C2CCCCC2)CC1 (stereo not given) [PERHEXILINE]
AC50 (D(1A) dopamine receptor [1]): > 30 µM | AC50 [2]: > 30 µM | AC50 (Glucocorticoid receptor): > 30 µM

CCC1=C(C)CN(C(=O)NCCc2ccc(S(=O)(=O)NC(=O)N[C@H]3CC[C@H](C)CC3)cc2)C1=O [GLIMEPIRIDE]
AC50 (Androgen receptor): > 30 µM | AC50 (Glucocorticoid receptor): > 30 µM

CNC1Cc2ccccc2N(C)c2ccccc21 (stereo not given) [METAPRAMINE]
AC50 (D(1A) dopamine receptor [1]): > 30 µM | AC50 [2]: > 30 µM | AC50 (Glucocorticoid receptor): > 30 µM

CNC(=O)c1ccccc1Sc1ccc2c(/C=C/c3ccccn3)n[nH]c2c1 [AXITINIB]
AC50 (D(1A) dopamine receptor [1]): > 30 µM | AC50 [2]: > 30 µM | AC50 (Glucocorticoid receptor): > 10 µM

Cn1nnc2c(C(N)=O)ncn2c1=O [TEMOZOLOMIDE]
AC50 (D(1A) dopamine receptor [1]): > 30 µM | AC50 [2]: > 30 µM | AC50 [3]: > 10 µM | AC50 (Estrogen receptor beta): > 30 µM | AC50 (D(1A) dopamine receptor [4]): > 10 µM | AC50 [5]: > 10 µM | AC50 [6]: > 10 µM | AC50 [7]: > 30 µM

NCC(CC(=O)O)c1ccc(Cl)cc1 (stereo not given) [BACLOFEN]
AC50 (D(1A) dopamine receptor [1]): > 30 µM | AC50 [2]: > 30 µM | AC50 (Glucocorticoid receptor): > 30 µM | AC50 [3]: > 10 µM | AC50 (Estrogen receptor beta): > 30 µM | AC50 (D(1A) dopamine receptor [4]): > 10 µM | AC50 [5]: > 10 µM | AC50 [6]: > 10 µM | AC50 [7]: > 30 µM

c1ccc([C@H]2CN3CCSC3=N2)cc1 [LEVAMISOLE]
AC50 (D(1A) dopamine receptor [1]): > 30 µM | AC50 [2]: > 30 µM | AC50 (Mu-type opioid receptor): > 30 µM | AC50 (Glucocorticoid receptor): > 30 µM | AC50 (D(1A) dopamine receptor [4]): > 30 µM

COc1ccc(CC(C)(C)NC[C@H](O)c2cc(O)cc3c2OCC(=O)N3)cc1 [OLODATEROL]
AC50 (D(1A) dopamine receptor [1]): > 30 µM | AC50 [2]: > 30 µM | AC50 (Glucocorticoid receptor): > 30 µM

CC(C)C[C@H]1C(=O)N2CCC[C@H]2[C@]2(O)O[C@](NC(=O)[C@@H]3C=C4c5cccc6[nH]c(Br)c(c56)C[C@H]4N(C)C3)(C(C)C)C(=O)N12 [BROMOCRIPTINE]
AC50 (D(1A) dopamine receptor [1]): > 30 µM | AC50 [2]: > 30 µM | AC50 (Glucocorticoid receptor): > 30 µM | AC50 [3]: > 10 µM | AC50 (D(1A) dopamine receptor [4]): > 10 µM | AC50 [6]: 0.412 µM | AC50 [7]: > 30 µM

COCCCN1CCC(NC(=O)c2cc(Cl)c(N)c3c2OCC3)CC1 [PRUCALOPRIDE]
AC50 [2]: > 30 µM | AC50 (Glucocorticoid receptor): > 30 µM

C[C@@H](O)[C@H]1C(=O)N2C(C(=O)O)=C(S[C@@H]3CN[C@H](C(=O)N(C)C)C3)[C@H](C)[C@H]12 [MEROPENEM]
AC50 (D(1A) dopamine receptor [1]): > 300 µM | AC50 [2]: > 300 µM | AC50 (Glucocorticoid receptor): > 300 µM

N[C@@H]1[C@H]2CN(c3nc4c(cc3F)c(=O)c(C(=O)O)cn4-c3ccc(F)cc3F)C[C@@H]12 [TROVAFLOXACIN]
AC50 (D(1A) dopamine receptor [1]): > 30 µM | AC50 [2]: > 30 µM | AC50 (Glucocorticoid receptor): > 30 µM

c1cnc(N2CCN(Cc3ccc4c(c3)OCO4)CC2)nc1 [PIRIBEDIL]
AC50 (D(1A) dopamine receptor [1]): > 30 µM | AC50 [2]: > 30 µM | AC50 (Glucocorticoid receptor): > 30 µM

CCCN1C[C@H](CSC)C[C@@H]2c3cccc4[nH]cc(c34)C[C@H]21 [PERGOLIDE]
AC50 [2]: > 30 µM | AC50 (Glucocorticoid receptor): > 30 µM | AC50 [3]: > 10 µM | AC50 (Estrogen receptor beta): > 30 µM | AC50 [6]: 0.0205 µM | AC50 [7]: > 30 µM

Cc1c(C(=O)NN2CCCCC2)nn(-c2ccc(Cl)cc2Cl)c1-c1ccc(Cl)cc1 [RIMONABANT]
AC50 (D(1A) dopamine receptor [1]): 26 µM | AC50 [2]: > 30 µM | AC50 (Glucocorticoid receptor): > 30 µM | AC50 [3]: > 10 µM | AC50 (Estrogen receptor beta): > 30 µM | AC50 [5]: > 10 µM | AC50 [6]: > 10 µM | AC50 [7]: > 30 µM

CN(C)CCC=C1c2ccccc2C(C)(C)c2ccccc21
AC50 (D(1A) dopamine receptor [1]): 4.5 µM | AC50 [2]: > 30 µM | AC50 (Glucocorticoid receptor): > 30 µM

C[C@H]1CNCCc2ccc(Cl)cc21 [LORCASERIN]
AC50 (D(1A) dopamine receptor [1]): > 30 µM | AC50 [2]: > 30 µM | AC50 (Glucocorticoid receptor): > 30 µM
